Laboratory results published in US9242970B2 (ACTELION PHARMACEUTICALS LTD., priority 2010, dated 2016).
Read-outs that look alike come from different tables or passages of the source.

Assays:
human orexin-1 receptor = human orexin-1 receptor (Homo sapiens (Human), UniProt O43613); assay: In vitro assay: intracellular calcium measurements (FLIPR), antagonistic activity; assay type: cell-based; details: CHO cells, 3 nM orexin-A, marked values are geometric means of n = 2-6, read-out: IC50 OX1
human orexin-2 receptor = human orexin-2 receptor (Homo sapiens (Human), UniProt O43614); assay: as above; assay type: cell-based; details: CHO cells, 3 nM orexin-A, marked values are geometric means of n = 2-6, read-out: IC50 OX2
Chain of human orexin-2 receptor (O43614 whole entry): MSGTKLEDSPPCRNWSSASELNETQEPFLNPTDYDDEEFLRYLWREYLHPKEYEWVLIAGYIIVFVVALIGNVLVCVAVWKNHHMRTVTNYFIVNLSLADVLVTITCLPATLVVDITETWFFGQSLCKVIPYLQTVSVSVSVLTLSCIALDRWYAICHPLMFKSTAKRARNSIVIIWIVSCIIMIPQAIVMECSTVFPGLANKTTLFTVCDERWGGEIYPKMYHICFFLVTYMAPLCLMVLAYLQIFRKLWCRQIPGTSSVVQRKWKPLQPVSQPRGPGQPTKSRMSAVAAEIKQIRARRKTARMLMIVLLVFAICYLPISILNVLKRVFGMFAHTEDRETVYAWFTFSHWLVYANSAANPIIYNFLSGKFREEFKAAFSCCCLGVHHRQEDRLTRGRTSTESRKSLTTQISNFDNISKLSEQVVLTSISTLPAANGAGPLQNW

[1] = compound incubation time of 10 min

Chain of human orexin-1 receptor (O43613 whole entry): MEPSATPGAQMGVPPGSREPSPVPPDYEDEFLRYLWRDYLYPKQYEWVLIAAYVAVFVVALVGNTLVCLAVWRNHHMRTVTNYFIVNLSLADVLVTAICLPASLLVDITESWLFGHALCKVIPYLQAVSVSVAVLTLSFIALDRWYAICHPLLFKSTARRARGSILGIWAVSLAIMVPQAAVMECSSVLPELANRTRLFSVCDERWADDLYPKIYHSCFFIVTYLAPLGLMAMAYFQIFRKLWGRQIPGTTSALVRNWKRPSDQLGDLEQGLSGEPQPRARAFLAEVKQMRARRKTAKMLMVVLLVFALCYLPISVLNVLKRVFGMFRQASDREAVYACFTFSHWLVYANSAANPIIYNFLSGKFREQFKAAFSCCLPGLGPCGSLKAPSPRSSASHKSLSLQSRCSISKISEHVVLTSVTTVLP

Row | Compound | IC50 (human orexin-1 receptor; [1]) | IC50 (human orexin-2 receptor; [1]) | IC50 (human orexin-1 receptor; compound incubation 120 min) | IC50 (human orexin-2 receptor; compound incubation 120 min)
1 | COc1cccc(OC)c1C1COCC(=O)N1Cc1ccc(OC(F)(F)F)cc1 (stereo not shown) [Example 266, 5-(2,6-dimethoxyphenyl)-4-(4-(trifluoromethoxy)benzyl)morpholin-3-one] | 412 nM | 86 nM | – | –
2 | COc1cncc(OC)c1C1CCCC(=O)N1Cc1csc(-c2ccccc2)n1 (stereo not shown) [Example 64, 6-(3,5-dimethoxypyridin-4-yl)-1-((2-phenylthiazol-4-yl)methyl)piperidin-2-one] | – | – | 618 nM | 246 nM
3 | CCC(c1ccc(OC(F)(F)F)cc1)N1C(=O)C(C)CC1c1c(OC)cccc1OC (stereo not shown) [Example 203, 5-(2,6-dimethoxyphenyl)-3-methyl-1-(1-(4-(trifluoromethoxy)phenyl)propyl)pyrrolidin-2-one] | 451 nM | 1170 nM | – | –
4 | COc1cccc(OC)c1C1CCCC(=O)N1Cc1cccc(-c2csc(C)n2)c1 (stereo not shown) [Example 16, 6-(2,6-dimethoxyphenyl)-1-(3-(2-methylthiazol-4-yl)benzyl)piperidin-2-one] | – | – | 3 nM | 2 nM
5 | COc1cccc(OC)c1C1CC(C)C(=O)N1Cc1ccc(OC(F)(F)F)c(F)c1 (stereo not shown) [Example 400, 5-(2,6-dimethoxyphenyl)-1-(3-fluoro-4-(trifluoromethoxy)benzyl)-3-methylpyrrolidin-2-one] | – | – | 151 nM | 183 nM
6 | COc1cccc(OC)c1C1CCCC(=O)N1Cc1ccc(OC(C)C)cc1 (stereo not shown) [Example 206, 6-(2,6-dimethoxyphenyl)-1-(4-isopropoxybenzyl)piperidin-2-one] | 383 nM | 16 nM | – | –
7 | COc1ccnc(OC)c1C1CCCC(=O)N1Cc1ccc2nc(C)sc2c1 (stereo not shown) [Example 58, 6-(2,4-dimethoxypyridin-3-yl)-1-((2-methylbenzo[d]thiazol-6-yl)methyl)piperidin-2-one] | – | – | 2560 nM | 1530 nM
8 | COc1cccc(OC)c1C1CCCC(=O)N1Cc1ccc2oc(C)nc2c1 (stereo not shown) [Example 249, 6-(2,6-dimethoxyphenyl)-1-((2-methylbenzo[d]oxazol-5-yl)methyl)piperidin-2-one] | – | – | 334 nM | 223 nM
9 | O=C1CCCC(c2ccnn2-c2ccccc2)N1Cc1cccc(-c2ccccc2)c1 (stereo not shown) [Example 456, 1-([1,1′-biphenyl]-3-ylmethyl)-6-(1-phenyl-1H-pyrazol-5-yl)piperidin-2-one] | – | – | 654 nM | 716 nM
10 | COc1cccc(OC)c1C1CCCCC(=O)N1Cc1cccc(-c2nccs2)c1 (stereo not shown) [Example 85, 7-(2,6-dimethoxyphenyl)-1-(3-(thiazol-2-yl)benzyl)azepan-2-one] | – | – | 2 nM | 3 nM
11 | COc1cccc(OC)c1C1CCCC(=O)N1Cc1ccc(OC(F)F)cn1 (stereo not shown) [Example 187, 1-((5-(difluoromethoxy)pyridin-2-yl)methyl)-6-(2,6-dimethoxyphenyl)piperidin-2-one] | 235 nM | 70 nM | – | –
12 | CCOc1ccccc1C1CCC(=O)N1Cc1ccc(F)cc1 (stereo not shown) [Example 194, 5-(2-ethoxyphenyl)-1-(4-fluorobenzyl)pyrrolidin-2-one] | > 12700 nM | 669 nM | – | –
13 | COc1cccc(OC)c1C1CC(F)(F)C(=O)N1Cc1ccc(OC(F)(F)F)cc1 (stereo not shown) [Example 256, 5-(2,6-dimethoxyphenyl)-3,3-difluoro-1-(4-(trifluoromethoxy)benzyl)pyrrolidin-2-one] | 193 nM | 133 nM | – | –
14 | O=C1CCCC(c2cccc3c2OCCO3)N1Cc1cccc(-c2ccccc2)c1 (stereo not shown) [Example 273, 1-([1,1′-biphenyl]-3-ylmethyl)-6-(2,3-dihydrobenzo[b][1,4]dioxin-5-yl)piperidin-2-one] | – | – | 795 nM | 296 nM
15 | COc1cncc(OC)c1C1CCCC(=O)N1Cc1cccc(-n2nccn2)c1 (stereo not shown) [Example 67, 1-(3-(2H-1,2,3-triazol-2-yl)benzyl)-6-(3,5-dimethoxypyridin-4-yl)piperidin-2-one] | – | – | 163 nM | 156 nM
16 | CC1CC(c2ccccc2-c2ccccc2)N(Cc2cccc(-c3ccccc3)c2)C1=O (stereo not shown) [Example 289, 5-([1,1′-biphenyl]-2-yl)-1-([1,1′-biphenyl]-3-ylmethyl)-3-methylpyrrolidin-2-one] | – | – | 420 nM | 596 nM
17 | COc1cccc(OC)c1C1CCCC(=O)N1Cc1cccc(N2CCOCC2)c1 (stereo not shown) [Example 17, 6-(2,6-dimethoxyphenyl)-1-(3-morpholinobenzyl)piperidin-2-one] | – | – | 210 nM | 661 nM
18 | O=C1CCCCC(c2ccccc2-c2ccncc2)N1Cc1cccc(-c2nccs2)c1 (stereo not shown) [Example 450, 7-(2-(pyridin-4-yl)phenyl)-1-(3-(thiazol-2-yl)benzyl)azepan-2-one] | – | – | 561 nM | 15 nM
19 | COc1cccc(OC)c1C1CC(C)C(=O)N1Cc1cccc(-c2ccccc2)n1 (stereo not shown) [Example 138, 5-(2,6-dimethoxyphenyl)-3-methyl-1-((6-phenylpyridin-2-yl)methyl)pyrrolidin-2-one] | – | – | 32 nM | 29 nM

Row | Compound | IC50 (human orexin-1 receptor; [1]) | IC50 (human orexin-2 receptor; [1]) | IC50 (human orexin-1 receptor; compound incubation 120 min) | IC50 (human orexin-2 receptor; compound incubation 120 min)
20 | CCOc1cccc(F)c1C1CC(C)C(=O)N1Cc1ccc2ccccc2n1 (stereo not shown) [Example 379, 5-(2-ethoxy-6-fluorophenyl)-3-methyl-1-(quinolin-2-ylmethyl)pyrrolidin-2-one] | – | – | 1000 nM | 71 nM
21 | COc1cccc(OC)c1C1CCCCC(=O)N1Cc1csc(-c2ccccc2)n1 (stereo not shown) [Example 98, 7-(2,6-dimethoxyphenyl)-1-((2-phenylthiazol-4-yl)methyl)azepan-2-one] | – | – | 6 nM | 6 nM
22 | CCOc1ccccc1C1CCC(=O)N1Cc1ccc(OC(F)(F)F)cc1 (stereo not shown) [Example 195, 5-(2-ethoxyphenyl)-1-(4-(trifluoromethoxy)benzyl)pyrrolidin-2-one] | 821 nM | 240 nM | – | –
23 | COc1cccc(OC)c1C1CCCCC(=O)N1Cc1cccc(-c2ccccn2)c1 (stereo not shown) [Example 84, 7-(2,6-dimethoxyphenyl)-1-(3-(pyridin-2-yl)benzyl)azepan-2-one] | – | – | 3 nM | 7 nM
24 | COc1cccc(OC)c1C1CCCC(=O)N1Cc1cccc(-c2ccc(F)cc2)n1 (stereo not shown) [Example 6, 6-(2,6-dimethoxyphenyl)-1-((6-(4-fluorophenyl)pyridin-2-yl)methyl)piperidin-2-one] | – | – | 119 nM | 142 nM
25 | COc1cccc(OC)c1C1CCCCC(=O)N1Cc1cccc(-c2ccncc2)c1 (stereo not shown) [Example 96, 7-(2,6-dimethoxyphenyl)-1-(3-(pyridin-4-yl)benzyl)azepan-2-one] | – | – | 16 nM | 85 nM
26 | COc1cccc(OC)c1C1CCCCC(=O)N1Cc1cccc(-c2ncccn2)c1 (stereo not shown) [Example 83, 7-(2,6-dimethoxyphenyl)-1-(3-(pyrimidin-2-yl)benzyl)azepan-2-one] | – | – | 3 nM | 19 nM
27 | CCOc1cccc(F)c1C1CC(C)C(=O)N1Cc1cccc(OC(F)F)c1 (stereo not shown) [Example 374, 1-(3-(difluoromethoxy)benzyl)-5-(2-ethoxy-6-fluorophenyl)-3-methylpyrrolidin-2-one] | – | – | 976 nM | 41 nM
28 | COc1cccc(OC)c1C1CC(C)C(=O)N1Cc1ccc(OCCF)cc1 (stereo not shown) [Example 422, 5-(2,6-dimethoxyphenyl)-1-(4-(2-fluoroethoxy)benzyl)-3-methylpyrrolidin-2-one] | – | – | 863 nM | 1040 nM
29 | COc1cccc(OC)c1C1CC(C)(C)CC(=O)N1Cc1ccc(OC(F)(F)F)cc1 (stereo not shown) [Example 174, 6-(2,6-dimethoxyphenyl)-4,4-dimethyl-1-(4(trifluoromethoxy)benzyl)piperidin-2-one] | 1800 nM | 1080 nM | – | –
30 | COc1ccccc1C1CCCC(=O)N1Cc1ccc2ccccc2c1 (stereo not shown) [Example 236, 6-(2-methoxyphenyl)-1-(naphthalen-2-ylmethyl)piperidin-2-one] | 1770 nM | 369 nM | – | –
31 | COc1cccc(OC)c1C1CCCC(=O)N1Cc1cc(-c2ccccn2)ccc1Cl (stereo not shown) [Example 48, 1-(2-chloro-5-(pyridin-2-yl)benzyl)-6-(2,6-dimethoxyphenyl)piperidin-2-one] | – | – | 169 nM | 625 nM
32 | COc1cccc(OC)c1C1CC(C)C(=O)N1Cc1csc(-c2ccccc2)n1 (stereo not shown) [Example 145, 5-(2,6-dimethoxyphenyl)-3-methyl-1-((2-phenylthiazol-4-yl)methyl)pyrrolidin-2-one] | – | – | 28 nM | 54 nM
33 | COc1cccc(OC)c1C1CCCCC(=O)N1Cc1ccc(Oc2ccccc2)cc1 (stereo not shown) [Example 73, 7-(2,6-dimethoxyphenyl)-1-(4-phenoxybenzyl)azepan-2-one] | – | – | 186 nM | 187 nM
34 | COc1cccc(OC)c1C1CCCCC(=O)N1Cc1cccc(-c2ccccn2)c1F (stereo not shown) [Example 106, 7-(2,6-dimethoxyphenyl)-1-(2-fluoro-3-(pyridin-2-yl)benzyl)azepan-2-one] | – | – | 14 nM | 60 nM
35 | COc1cccc(OC)c1C1CCCC(=O)N1Cc1ccc2c(c1)CCCN2 (stereo not shown) [Example 240, 6-(2,6-dimethoxyphenyl)-1-((1,2,3,4-tetrahydroquinolin-6-yl)methyl)piperidin-2-one] | 2040 nM | 596 nM | – | –
36 | COc1cccc(OC)c1C1CCCCC(=O)N1Cc1ccnc(-n2cccn2)c1 (stereo not shown) [Example 103, 1-((2-(1H-pyrazol-1-yl)pyridin-4-yl)methyl)-7-(2,6-dimethoxyphenyl)azepan-2-one] | – | – | 8 nM | 86 nM
37 | COc1cccc(OC)c1C1CCCC(=O)N1Cc1ccc2nonc2c1 (stereo not shown) [Example 170, 1-(benzo[c][1,2,5]oxadiazol-5-ylmethyl)-6-(2,6-dimethoxyphenyl)piperidin-2-one] | 2390 nM | 766 nM | – | –
38 | COc1cncc(OC)c1C1CCCCC(=O)N1Cc1cccc(-c2csc(C)n2)c1 (stereo not shown) [Example 274, 7-(3,5-dimethoxypyridin-4-yl)-1-(3-(2-methylthiazol-4-yl)benzyl)azepan-2-one] | – | – | 23 nM | 64 nM
